Literature values, collected in patent publication US9949928B2, “Biodegradable copolymers, systems including the copolymers, and methods of forming and using same” (The Regents of the University of Colorado, a body corporate, priority 2013, dated 2018).

Settings: cited from earlier work

CC1(C)O[C@@H]2C[C@H]3[C@@H]4CCC5=CC(=O)C=C[C@]5(C)[C@@]4(F)[C@@H](O)C[C@]3(C)[C@]2(C(=O)CO)O1 [triamcinolone acetonide]
log P: 1.16
